Data reported in patent US9273067B2, “Pyrazolopyrimidine macrocycles as inhibitors of human immunodeficiency virus replication” (BRISTOL-MYERS SQUIBB COMPANY, priority 2014, dated 2016).
pEC50: −log10 of the molar value. Read-outs that look alike come from different tables or passages of the source.

Tested on: NL-RLuc virus (recombinant HIV NL4-3 with Renilla Luciferase) in MT-2 cells
Experiment: Inhibition of HIV replication (NL-RLuc virus in MT-2 cells, luciferase readout)
Format: cell-based, human immunodeficiency virus (HIV)
Conditions: NL-RLuc virus infecting MT-2 cells, 5 days of incubation, 10% FBS, luciferase quantitation, at least 2 experiments
Source text: Inhibition of HIV Replication:
A recombinant NL-RLuc proviral clone was constructed in which a section of the nef gene from NL4-3 was replaced with the Renilla Luciferase gene. This virus is fully infectious and can undergo multiple cycles of replication in cell culture. In addition, the luciferous reporter provides a simple and easy method for quantitating the extent of virus growth and consequently, the antiviral activity of test compounds. The plasmid pNLRLuc contains the proviral NL-Rluc DNA cloned into pUC 18 at the PvuII site. The NL-RLuc virus was prepared by transfection of 293T cells with the plasmid pNLRLuc. Transfections were performed using the LipofectAMINE PLUS kit from Invitrogen (Carlsbad, Calif.) according to the manufacturer and the virus generated was titered in MT-2 cells. For susceptibility analyses, the titrated virus was used to infect MT-2 cells in the presence of compound, and after 5 days of incubation, cells were processed and quantitated for virus growth by the amount of expressed luciferase. Assay media was RPMI 1640 supplemented with 10% heat inactivated fetal bovine serum (FBS), 100 units/ml penicillin G/100 units/ml streptomycin, 10 mM HEPES buffer pH 7.55 and 2 mM L-glutamine. The results from at least 2 experiments were used to calculate the EC50 values. Luciferase was quantitated using the Dual Luciferase kit from Promega (Madison, Wis.). Susceptibility of viruses to compounds was determined by incubation in the presence of serial dilutions of the compound. The 50% effective concentration (EC50) was calculated by using the exponential form of the median effect equation where (Fa)=1/[1+(ED50/drug conc.)^m] (Johnson V A, Byington R T. Infectivity Assay. In Techniques in HIV Research. ed. Aldovini A, Walker B D. 71-76. New York: Stockton Press. 1990).

Structure (SMILES)	pEC50 (read-out: EC50)	pEC50 (MT2, 120 h)
Cc1nc2cc3nn2c(c1[C@H](OC(C)(C)C)C(=O)O)N1CCC(C)(CC1)O/C=C\CCc1ccccc1OC3 [Example 21, (2S)-2-(tert-Butoxy)-2-[(20Z)-4,23-dimethyl-11,22-dioxa-1,5,7,8-tetraazapentacyclo[21.2.2.1^6,^9.1^2,^7.0^12,^17]octacosa-2,4,6(28),8,12(17),13,15,20-octaen-3-yl]acetic acid]	6.19	–
Cc1nc2cc3nn2c(c1[C@H](OC(C)(C)C)C(=O)O)N1CCC(C)(CC1)OC/C=C\Cc1ccccc1OC3 [Example 22, (2S)-2-(tert-Butoxy)-2-[(19Z)-4,23-dimethyl-11,22-dioxa-1,5,7,8-tetraazapentacyclo[21.2.2.1^6,^9.1^2,^7.0^12,^17]octacosa-2,4,6(28),8,12(17),13,15,19-octaen-3-yl]acetic acid]	6.85	–
Cc1nc2cc3nn2c(c1[C@H](OC(C)(C)C)C(=O)O)N1CCC(C)(CC1)OCCCc1ccccc1COC3 [Example 23, (2S)-2-(tert-Butoxy)-2-{4,23-dimethyl-11,22-dioxa-1,5,7,8-tetraazapentacyclo[21.2.2.1^6,^9.0^2,^7.0^13,^18]octacosa-2,4,6(28),8,13(18),14,16-heptaen-3-yl}acetic acid]	–	7.96
Cc1nc2cc3nn2c(c1[C@H](OC(C)(C)C)C(=O)O)N1CCC(C)(CC1)OCCCCc1ccccc1COC3 [Example 24, (2S)-2-(tert-Butoxy)-2-{4,24-dimethyl-11,23-dioxa-1,5,7,8-tetraazapentacyclo[22.2.2.1^6,^9.0^2,^7.0^13,^18]nonacosa-2,4,6(29),8,13(18),14,16-heptaen-3-yl}acetic acid]	–	8.52
Cc1nc2cc3nn2c(c1[C@H](OC(C)(C)C)C(=O)O)N1CCC(C)(CC1)OCCCc1ccccc1CCC3 [Example 25, (2S)-2-(tert-Butoxy)-2-{4,23-dimethyl-22-oxa-1,5,7,8-tetraazapentacyclo[21.2.2.1^6,^9.0^2,^7.0^13,^18]octacosa-2,4,6(28),8,13(18),14,16-heptaen-3-yl}acetic acid]	–	7.51
Cc1nc2cc3nn2c(c1[C@H](OC(C)(C)C)C(=O)O)N1CCC(C)(CC1)OCC=Cc1cc(C(F)(F)F)ccc1COC3 [Example 26, (2S)-2-(tert-Butoxy)-2-[4,23-dimethyl-16-(trifluoromethyl)-11,22-dioxa-1,5,7,8-tetraazapentacyclo[21.2.2.1^6,^9.0^2,^7.0^13,^18]octacosa-2,4,6(28),8,13(18),14,16,19-octaen-3-yl]acetic acid]	–	7.49
Cc1nc2cc3nn2c(c1[C@H](OC(C)(C)C)C(=O)O)N1CCC(C)(CC1)OCCCC[C@H](C)Oc1ccc(F)cc1COC3 [Example 28, (2S)-2-(tert-Butoxy)-2-[(20S)-15-fluoro-4,20,26-trimethyl-11,19,25-trioxa-1,5,7,8-tetraazapentacyclo[24.2.2.1^6,^9.0^2,^7.0^13,^18]hentriaconta-2,4,6(31),8,13,15,17-heptaen-3-yl]acetic acid]	–	8.30
Cc1ccc2c(c1)COCc1cc3nc(C)c([C@H](OC(C)(C)C)C(=O)O)c(n3n1)N1CCC(C)(CC1)OCCCC[C@H](C)O2 [Example 30, (2S)-2-(tert-Butoxy)-2-[(20S)-4,15,20,26-tetramethyl-11,19,25-trioxa-1,5,7,8-tetraazapentacyclo[24.2.2.1^6,^9.0^2,^7.0^13,^18]hentriaconta-2,4,6(31),8,13,15,17-heptaen-3-yl]acetic]	–	7.19
Cc1nc2cc3nn2c(c1[C@H](OC(C)(C)C)C(=O)O)N1CCC(C)(CC1)OCCCC[C@H](C)Oc1cc(F)cc(F)c1COC3 [Example 32, (2S)-2-(tert-Butoxy)-2-[(20S)-14,16-difluoro-4,20,26-trimethyl-11,19,25-trioxa-1,5,7,8-tetraazapentacyclo[24.2.2.1^6,^9.0^2,^7.0^13,^18]hentriaconta-2,4,6(31),8,13,15,17-heptaen-3-yl]acetic acid]	–	8.52
Cc1nc2cc3nn2c(c1[C@H](OC(C)(C)C)C(=O)O)N1CCC(C)(CC1)OCC=CC[C@H](C)Oc1cc(F)c(F)cc1COC3 [Example 33, (2S)-2-(tert-Butoxy)-2-[(20S)-15,16-difluoro-4,20,26-trimethyl-11,19,25-trioxa-1,5,7,8-tetraazapentacyclo[24.2.2.1^6,^9.0^2,^7.0^13,^18]hentriaconta-2,4,6(31),8,13,15,17,22-octaen-3-yl]acetic acid]	–	8.22
Cc1nc2cc3nn2c(c1[C@H](OC(C)(C)C)C(=O)O)N1CCC(C)(CC1)OCCCC[C@H](C)Oc1cc(Cl)ccc1COC3 [Example 35, (2S)-2-(tert-Butoxy)-2-[(20S)-16-chloro-4,20,26-trimethyl-11,19,25-trioxa-1,5,7,8-tetraazapentacyclo[24.2.2.1^6,^9.0^2,^7.0^13,^18]hentriaconta-2,4,6(31),8,13,15,17-heptaen-3-yl]acetic acid]	–	8.70
Cc1ccc2c(c1)O[C@@H](C)C/C=C\COC1(C)CCN(CC1)c1c([C@H](OC(C)(C)C)C(=O)O)c(C)nc3cc(nn13)COC2 [Example 36, (2S)-2-(tert-Butoxy)-2-[(20S,22Z)-4,16,20,26-tetramethyl-11,19,25-trioxa-1,5,7,8-tetraazapentacyclo[24.2.2.1^6,^9.0^2,^7.0^13,^18]hentriaconta-2,4,6(31),8,13(18),14,16,22-octaen-3-yl]acetic acid]	5.43	–
Cc1ccc2c(c1)O[C@@H](C)C/C=C/COC1(C)CCN(CC1)c1c([C@H](OC(C)(C)C)C(=O)O)c(C)nc3cc(nn13)COC2 [Example 37, (2S)-2-(tert-Butoxy)-2-[(20S,22E)-4,16,20,26-tetramethyl-11,19,25-trioxa-1,5,7,8-tetraazapentacyclo[24.2.2.1^6,^9.0^2,^7.0^13,^18]hentriaconta-2,4,6(31),8,13(18),14,16,22-octaen-3-yl]acetic acid]	8.40	–
Cc1ccc2c(c1)O[C@@H](C)CCCCOC1(C)CCN(CC1)c1c([C@H](OC(C)(C)C)C(=O)O)c(C)nc3cc(nn13)COC2 [Example 38, (2S)-2-(tert-Butoxy)-2-[(20S)-4,16,20,26-tetramethyl-11,19,25-trioxa-1,5,7,8-tetraazapentacyclo[24.2.2.1^6,^9.0^2,^7.0^13,^18]hentriaconta-2,4,6(31),8,13(18),14,16-heptaen-3-yl]acetic acid]	–	8.70
Cc1nc2cc3nn2c(c1[C@H](OC(C)(C)C)C(=O)O)N1CCC(C)(CC1)OCCCC[C@H](C)Oc1cc(F)ccc1CCC3 [Example 39, (2S)-2-(tert-Butoxy)-2-[(20S)-16-fluoro-4,20,26-trimethyl-19,25-dioxa-1,5,7,8-tetraazapentacyclo[24.2.2.1^6,^9.0^2,^7.0^13,^18]hentriaconta-2,4,6(31),8,13(18),14,16-heptaen-3-yl]acetic acid]	–	8.30
Cc1nc2cc3nn2c(c1[C@H](OC(C)(C)C)C(=O)O)N1CCC(C)(CC1)OCCCC[C@H](C)Oc1cc(F)ccc1CCC3 [Example 40, (2S)-2-(tert-Butoxy)-2-[(20S)-16-fluoro-4,20,26-trimethyl-19,25-dioxa-1,5,7,8-tetraazapentacyclo[24.2.2.1^6,^9.0^2,^7.0^13,^18]hentriaconta-2,4,6(31),8,13(18),14,16-heptaen-3-yl]acetic acid]	7.51	–
